Source: patent publication EP0051687A1, “Maleimides and process for the preparation of same” (MITSUI TOATSU CHEMICALS, Inc., priority 1980, dated 1982)

Assay: Solubility in organic solvents at room temperature
Format: physicochemical

Solubility of 2-(4'-hydroxyphenyl)-2-(4"-maleimidophenyl) propane (at room temperature ) (Organic Solvent: Acetone): 50 wt.% or higher | Solubility of 2-(4'-hydroxyphenyl)-2-(4"-maleimidophenyl) propane (at room temperature ) (Organic Solvent: Dimethylformamide): 50 wt.% or higher | Solubility of 2-(4'-hydroxyphenyl)-2-(4"-maleimidophenyl) propane (at room temperature ) (Organic Solvent: Dioxane): 36 wt.% | Solubility of 2-(4'-hydroxyphenyl)-2-(4"-maleimidophenyl) propane (at room temperature ) (Organic Solvent: Ethanol): 11 wt.% | Solubility of 2-(4'-hydroxyphenyl)-2-(4"-maleimidophenyl) propane (at room temperature ) (Organic Solvent: Methanol): 20 wt.% | Solubility of 2-(4'-hydroxyphenyl)-2-(4"-maleimidophenyl) propane (at room temperature ) (Organic Solvent: Methyl ethyl ketone): 46 wt.% | Solubility of 2-(4'-hydroxyphenyl)-2-(4"-maleimidophenyl) propane (at room temperature ) (Organic Solvent: Tetrahydrofuran): 50 wt.% or higher
SMILES: CC(C)(c1ccc(O)cc1)c1ccc(N2C(=O)C=CC2=O)cc1 [2-(4'-hydroxyphenyl)-2-(4"-maleimidophenyl) propane]
